In ChEMBL document CHEMBL1909046, “DrugMatrix in vitro pharmacology data”:

Experiments:
Vasopressin V1a receptor = Vasopressin V1a receptor (Homo sapiens, UniProt P37288); type: cell membranes, Membrane; settings: hek293; further: in other assays of this panel Not Active means under 50% inhibition at 10 µM
[1] = target: 5-hydroxytryptamine receptor 6 (Homo sapiens, UniProt P50406); type: cell membranes, HeLa, Membrane; settings: hela; further: in other assays of this panel Not Active means under 50% inhibition at 10 µM
Histamine H2 receptor = Histamine H2 receptor (Homo sapiens, UniProt P25021); type: cell membranes, CHO-K1, Membrane; further: in other assays of this panel Not Active means under 50% inhibition at 10 µM
[2] = target: Protein phosphatase 3 catalytic subunit alpha (Homo sapiens, UniProt Q08209); design: species or system Escherichia coli;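 further: inhibition of calcineurin (PP2B) enzyme activity, measured with DiFMUP as the substrate; in other assays of this panel Not Active means under 50% inhibition at 10 µM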
Adenosine receptor A2a = Adenosine receptor A2a (Homo sapiens, UniProt P29274); assay: DRUGMATRIX: Adenosine A2A radioligand binding (ligand: […]); type: cell membranes, HEK293, Membrane; settings: Not Active = under 50% inhibition at 10 µM
[3] = target: T1, Angiotensin-converting enzyme (Oryctolagus cuniculus, UniProt P12822); type: tissue-based, Lung
T1 sequence (P12822 whole entry): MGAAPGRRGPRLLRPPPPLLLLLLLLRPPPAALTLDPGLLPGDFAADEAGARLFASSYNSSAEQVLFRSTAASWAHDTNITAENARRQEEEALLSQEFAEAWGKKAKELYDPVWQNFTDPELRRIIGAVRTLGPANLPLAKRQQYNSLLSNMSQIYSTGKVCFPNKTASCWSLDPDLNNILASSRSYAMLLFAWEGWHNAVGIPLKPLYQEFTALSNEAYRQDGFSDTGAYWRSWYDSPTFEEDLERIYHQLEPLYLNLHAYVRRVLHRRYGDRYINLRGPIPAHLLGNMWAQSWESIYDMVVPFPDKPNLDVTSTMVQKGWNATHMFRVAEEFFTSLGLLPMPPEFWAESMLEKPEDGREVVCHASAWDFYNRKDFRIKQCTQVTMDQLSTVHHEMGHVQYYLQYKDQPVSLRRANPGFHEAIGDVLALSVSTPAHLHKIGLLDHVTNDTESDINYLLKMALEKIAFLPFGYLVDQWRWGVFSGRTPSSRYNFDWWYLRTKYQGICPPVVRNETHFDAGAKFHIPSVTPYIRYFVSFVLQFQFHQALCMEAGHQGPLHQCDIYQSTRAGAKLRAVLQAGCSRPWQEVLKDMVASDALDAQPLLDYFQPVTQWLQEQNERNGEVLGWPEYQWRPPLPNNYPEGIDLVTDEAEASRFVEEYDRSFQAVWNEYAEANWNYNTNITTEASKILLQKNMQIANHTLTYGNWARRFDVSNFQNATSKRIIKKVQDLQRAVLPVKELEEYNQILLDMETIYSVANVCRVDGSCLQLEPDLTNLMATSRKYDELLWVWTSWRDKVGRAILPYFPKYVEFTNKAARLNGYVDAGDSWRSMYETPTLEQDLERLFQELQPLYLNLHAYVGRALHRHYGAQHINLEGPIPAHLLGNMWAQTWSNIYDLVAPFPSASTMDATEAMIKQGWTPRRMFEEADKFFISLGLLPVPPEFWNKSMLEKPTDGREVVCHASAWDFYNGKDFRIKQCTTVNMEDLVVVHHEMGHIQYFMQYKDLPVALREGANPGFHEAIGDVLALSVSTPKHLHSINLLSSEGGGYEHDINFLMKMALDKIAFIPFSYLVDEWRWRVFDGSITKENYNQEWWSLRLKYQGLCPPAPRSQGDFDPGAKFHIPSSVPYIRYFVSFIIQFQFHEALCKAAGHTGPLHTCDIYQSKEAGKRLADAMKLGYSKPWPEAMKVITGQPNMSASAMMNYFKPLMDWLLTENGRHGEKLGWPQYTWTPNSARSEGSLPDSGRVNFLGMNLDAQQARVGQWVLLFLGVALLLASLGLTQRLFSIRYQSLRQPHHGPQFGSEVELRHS

[4] = DRUGMATRIX: Calcium Channel Type L, Phenylalkylamine radioligand binding (ligand: [3H] (-)-Desmethoxyverapamil (D-888)); type: cell membranes, Rattus norvegicus, Wistar, Brain, Membrane; settings: Not Active = under 50% inhibition at 10 µM

Chain of Histamine H2 receptor (P25021 whole entry): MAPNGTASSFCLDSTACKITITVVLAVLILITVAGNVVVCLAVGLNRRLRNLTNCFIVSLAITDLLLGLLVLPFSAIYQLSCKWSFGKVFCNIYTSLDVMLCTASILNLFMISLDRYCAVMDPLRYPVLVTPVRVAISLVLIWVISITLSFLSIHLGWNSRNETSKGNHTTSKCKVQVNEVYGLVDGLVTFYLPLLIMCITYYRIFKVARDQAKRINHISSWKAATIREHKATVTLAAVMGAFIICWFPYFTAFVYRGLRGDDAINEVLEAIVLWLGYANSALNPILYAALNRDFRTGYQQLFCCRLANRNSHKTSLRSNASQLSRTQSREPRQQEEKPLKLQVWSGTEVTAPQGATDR
Chain of 5-hydroxytryptamine receptor 6 (P50406 whole entry): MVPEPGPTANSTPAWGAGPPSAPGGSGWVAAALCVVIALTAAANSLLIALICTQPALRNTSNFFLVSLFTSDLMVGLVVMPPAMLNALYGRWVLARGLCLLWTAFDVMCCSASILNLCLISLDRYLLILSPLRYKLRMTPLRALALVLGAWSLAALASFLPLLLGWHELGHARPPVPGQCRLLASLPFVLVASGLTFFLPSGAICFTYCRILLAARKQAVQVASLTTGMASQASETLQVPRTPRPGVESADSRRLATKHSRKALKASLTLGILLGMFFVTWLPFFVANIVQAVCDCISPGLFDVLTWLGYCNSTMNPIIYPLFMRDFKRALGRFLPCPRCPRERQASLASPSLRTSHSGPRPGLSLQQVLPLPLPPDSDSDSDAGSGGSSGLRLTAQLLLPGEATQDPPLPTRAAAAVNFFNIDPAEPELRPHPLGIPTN
Chain of Vasopressin V1a receptor (P37288 whole entry): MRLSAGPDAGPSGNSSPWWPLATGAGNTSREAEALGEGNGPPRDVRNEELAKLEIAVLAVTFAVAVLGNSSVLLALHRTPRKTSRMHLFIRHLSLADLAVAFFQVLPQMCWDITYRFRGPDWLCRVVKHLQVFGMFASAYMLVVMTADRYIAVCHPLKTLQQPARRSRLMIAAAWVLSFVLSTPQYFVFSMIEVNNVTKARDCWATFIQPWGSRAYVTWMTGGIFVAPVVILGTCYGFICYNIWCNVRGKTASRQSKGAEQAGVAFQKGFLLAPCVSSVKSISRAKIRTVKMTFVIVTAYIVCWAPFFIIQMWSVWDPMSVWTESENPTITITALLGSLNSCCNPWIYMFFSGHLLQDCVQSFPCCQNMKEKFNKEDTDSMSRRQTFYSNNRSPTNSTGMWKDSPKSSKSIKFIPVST
Chain of Adenosine receptor A2a (P29274 whole entry): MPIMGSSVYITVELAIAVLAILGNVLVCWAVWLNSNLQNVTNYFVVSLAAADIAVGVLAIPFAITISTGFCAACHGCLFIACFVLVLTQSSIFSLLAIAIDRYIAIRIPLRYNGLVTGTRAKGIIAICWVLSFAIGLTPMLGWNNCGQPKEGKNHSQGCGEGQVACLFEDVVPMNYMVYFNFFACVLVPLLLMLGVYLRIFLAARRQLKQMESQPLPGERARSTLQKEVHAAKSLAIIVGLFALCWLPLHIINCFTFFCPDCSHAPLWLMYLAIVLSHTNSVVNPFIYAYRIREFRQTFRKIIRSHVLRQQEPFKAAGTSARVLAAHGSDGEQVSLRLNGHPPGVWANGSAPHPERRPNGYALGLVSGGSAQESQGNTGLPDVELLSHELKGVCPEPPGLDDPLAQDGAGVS

Compound | IC50 (Vasopressin V1a receptor) | IC50 [1] | IC50 (Histamine H2 receptor; cho-k1) | IC50 [2] | IC50 (Adenosine receptor A2a; hek293) | IC50 [3] | IC50 [4] | Ki [4] | IC50 (Adenosine receptor A2a; read-out: IC50) [µM] | Ki (Adenosine receptor A2a; read-out: Ki) [µM] | IC50 (Histamine H2 receptor; read-out: IC50) [µM] | Ki (Histamine H2 receptor; read-out: Ki) [µM] | IC50 ([4]; read-out: IC50) [µM] | Ki ([4]; read-out: Ki) [µM] | Ki (Vasopressin V1a receptor) | Ki [1] | Ki (Histamine H2 receptor; cho-k1) | Ki [2] | Ki (Adenosine receptor A2a; hek293) | Ki [3]
N=C(N)NC(=O)c1nc(Cl)c(N)nc1N [AMILORIDE] | Not Active | Not Active | Not Active | Not Active | Not Active | Not Active | Not Active | Not Active |  |  |  |  |  |  |  |  |  |  |  | 
CC(C)(Oc1ccc(C2CCCc3ccccc32)cc1)C(=O)O (centres undefined) [NAFENOPIN] | Not Active | Not Active | Not Active | Not Active | Not Active | Not Active | Not Active | Not Active |  |  |  |  |  |  |  |  |  |  |  | 
Cc1cc2cc3c(C)cc(=O)oc3c(C)c2o1 [TRIOXSALEN] | Not Active | Not Active | Not Active | Not Active |  | Not Active | Not Active | Not Active | 1.31 | 0.737 |  |  |  |  |  |  |  |  |  | 
Oc1ccc(OCc2ccccc2)cc1 [MONOBENZONE] | Not Active | Not Active | Not Active | Not Active | Not Active | Not Active | Not Active | Not Active |  |  |  |  |  |  |  |  |  |  |  | 
O=C1CC2(CCCC2)CC(=O)N1CCCCN1CCN(c2ncccn2)CC1 [BUSPIRONE] | Not Active | Not Active | Not Active | Not Active | Not Active | Not Active | Not Active | Not Active |  |  |  |  |  |  |  |  |  |  |  | 
COc1cccc2c1C(=O)c1c(O)c3c(c(O)c1C2=O)C[C@@](O)(C(=O)CO)C[C@@H]3O[C@H]1C[C@H](N)[C@@H](O)[C@H](C)O1 [EPIRUBICIN] | Not Active | Not Active | Not Active | Not Active | Not Active | Not Active | Not Active | Not Active |  |  |  |  |  |  |  |  |  |  |  | 
C#C[C@]1(O)CC[C@H]2[C@@H]3CCc4cc(OC)ccc4[C@H]3CC[C@@]21C [MESTRANOL] | Not Active | Not Active | Not Active | Not Active | Not Active | Not Active | Not Active | Not Active |  |  |  |  |  |  |  |  |  |  |  | 
CN(C)c1ccc(C(=C2C=CC(=[N+](C)C)C=C2)c2ccc(N(C)C)cc2)cc1.[Cl-] [GENTIAN VIOLET] | Not Active | Not Active |  | Not Active |  | Not Active |  |  | 3.37 | 1.89 | 1.16 | 1.14 | 3.44 | 3.35 |  |  |  |  |  | 
CC(=O)Nc1ccc(O)cc1 [ACETAMINOPHEN] | Not Active | Not Active | Not Active | Not Active | Not Active | Not Active | Not Active | Not Active |  |  |  |  |  |  |  |  |  |  |  | 
CCCCN1CCCCC1C(=O)Nc1c(C)cccc1C.Cl (centres undefined) [BUPIVACAINE HYDROCHLORIDE] | Not Active | Not Active | Not Active | Not Active | Not Active | Not Active | Not Active | Not Active |  |  |  |  |  |  |  |  |  |  |  | 
Nc1ccn([C@@H]2CS[C@H](CO)O2)c(=O)n1 [LAMIVUDINE] | Not Active | Not Active | Not Active | Not Active | Not Active | Not Active | Not Active | Not Active |  |  |  |  |  |  |  |  |  |  |  | 
COP(=O)(OC)OC=C(Cl)Cl [DICHLORVOS] | Not Active | Not Active | Not Active | Not Active | Not Active | Not Active | Not Active | Not Active |  |  |  |  |  |  |  |  |  |  |  | 
CADMIUM DICHLORIDE | Not Active | Not Active | Not Active | Not Active | Not Active | Not Active | Not Active | Not Active |  |  |  |  |  |  | Not Active | Not Active | Not Active | Not Active | Not Active | Not Active
C[C@](O)(CS(=O)(=O)c1ccc(F)cc1)C(=O)Nc1ccc(C#N)c(C(F)(F)F)c1 [(R)-BICALUTAMIDE] | Not Active | Not Active | Not Active | Not Active | Not Active | Not Active | Not Active | Not Active |  |  |  |  |  |  |  |  |  |  |  | 
Cc1nccn1CC1CCc2c(c3ccccc3n2C)C1=O (centres undefined) [ONDANSETRON] | Not Active | Not Active | Not Active | Not Active | Not Active | Not Active | Not Active | Not Active |  |  |  |  |  |  |  |  |  |  |  | 
CCOC(=O)[C@H](CCc1ccccc1)N[C@H]1CCc2ccccc2N(CC(=O)O)C1=O [BENAZEPRIL] | Not Active | Not Active | Not Active | Not Active | Not Active | Not Active | Not Active | Not Active |  |  |  |  |  |  |  |  |  |  |  | 
CCCCOc1ccc(OCCCN2CCOCC2)cc1 [PRAMOXINE] | Not Active | Not Active | Not Active | Not Active | Not Active | Not Active | Not Active | Not Active |  |  |  |  |  |  |  |  |  |  |  | 
COc1cccc2c1C(=O)c1c(O)c3c(c(O)c1C2=O)C[C@@](O)(C(=O)CO)C[C@@H]3O[C@H]1C[C@H](N)[C@H](O)[C@H](C)O1 [DOXORUBICIN] | Not Active | Not Active | Not Active | Not Active | Not Active | Not Active | Not Active | Not Active |  |  |  |  |  |  |  |  |  |  |  | 
C[C@H]1C[C@H]2[C@@H]3CCC4=CC(=O)C=C[C@]4(C)[C@@]3(Cl)[C@@H](O)C[C@]2(C)[C@@]1(O)C(=O)CO [BECLOMETHASONE] | Not Active | Not Active | Not Active | Not Active | Not Active | Not Active | Not Active | Not Active |  |  |  |  |  |  |  |  |  |  |  | 
CCN(CC)CCOC(=O)c1ccc(N)cc1 [PROCAINE] | Not Active | Not Active | Not Active | Not Active | Not Active | Not Active | Not Active | Not Active |  |  |  |  |  |  |  |  |  |  |  | 
O=C(O)Cc1ccccc1Nc1c(Cl)cccc1Cl [DICLOFENAC] | Not Active | Not Active | Not Active | Not Active | Not Active | Not Active | Not Active | Not Active |  |  |  |  |  |  |  |  |  |  |  | 
CC(C)[C@H]1CC[C@H](C(=O)N[C@H](Cc2ccccc2)C(=O)O)CC1 [NATEGLINIDE] | Not Active | Not Active | Not Active | Not Active | Not Active | Not Active | Not Active | Not Active |  |  |  |  |  |  |  |  |  |  |  | 
Nc1c(CC(=O)O)cccc1C(=O)c1ccc(Br)cc1 [BROMFENAC] | Not Active | Not Active | Not Active | Not Active | Not Active | Not Active | Not Active | Not Active |  |  |  |  |  |  |  |  |  |  |  | 
CC(=O)Nc1cccc(O)c1 [METACETAMOL] | Not Active | Not Active | Not Active | Not Active | Not Active | Not Active | Not Active | Not Active |  |  |  |  |  |  |  |  |  |  |  | 
CCn1cc(C(=O)O)c(=O)c2cc(F)c(N3CCN(C)CC3)cc21 [PEFLOXACIN] | Not Active | Not Active | Not Active | Not Active | Not Active | Not Active | Not Active | Not Active |  |  |  |  |  |  |  |  |  |  |  | 
